The record followed here is patent US20120220577A1, “GLYCINE B ANTAGONISTS” (Merz Pharma GmbH & Co KgaA, priority 2009, published 2012).

Molecules are shown by their SMILES.

The target of this test is T1, glycine binding pocket of the NMDA receptor (Rattus norvegicus, UniProt P35439).
T1 construct: For isolation of the cell membranes, the cortices are homogenized; from tissue; host or cells: rat cerebral cortex membranes (male Sprague-Dawley)
As to the kind of experiment: [3H]MDL-105,519 displacement studies (rat cortical membranes). Conditions: displacement of 2 nM [3H]-MDL-105,519, rat cortical membranes; read-out: NMDA-MDL 105519-r-CTX - IC50.
`O=C(O)COc1cc(C(=O)O)cc2cc(Cl)cc(Cl)c12` [Example 1, 4-Carboxymethoxy-5,7-dichloronaphthalene-2-carboxylic acid]: the 50% inhibitory concentration (IC50) (in general, the concentration that inhibits the measured activity by half) stood at 1180 nM.
With `O=C(COc1cc(C(=O)O)cc2cc(Cl)cc(Cl)c12)Nc1ccccc1C(=O)O` [Example 3, 4-[(2-Carboxy-phenylcarbamoyl)-methoxy]-5,7-dichloro-naphthalene-2-carboxylic acid] the figure was 765 nM.
The value for `O=C(COc1cc(C(=O)O)cc2cc(Cl)cc(Cl)c12)Nc1ccccc1CO` [Example 5, 5,7-Dichloro-4-[(2-hydroxymethylphenylcarbamoyl)-methoxy]-naphthalene-2-carboxylic acid] was 562 nM.
The value for `O=C(O)Cc1ccc(NC(=O)COc2cc(C(=O)O)cc3cc(Cl)cc(Cl)c23)cc1` [Example 7, 4-[(4-Carboxymethylphenylcarbamoyl)-methoxy]-5,7-dichloronaphthalene-2-carboxylic acid] was 958 nM; that for `O=C(O)Cc1cccc(NC(=O)COc2cc(C(=O)O)cc3cc(Cl)cc(Cl)c23)c1` [Example 13, 4-[(3-Carboxymethylphenylcarbamoyl)-methoxy]-5,7-dichloronaphthalene-2-carboxylic acid] was 457 nM; that for `CN(C(=O)COc1cc(C(=O)O)cc2cc(Cl)cc(Cl)c12)c1ccc(C(=O)O)cc1` [Example 14, 4-{[(4-Carboxy-phenyl)-methylcarbamoyl]-methoxy}-5,7-dichloronaphthalene-2-carboxylic acid] was 4340 nM.
Consider `O=C(O)Cc1ccccc1NC(=O)COc1cc(C(=O)O)cc2cc(Cl)cc(Cl)c12` [Example 15, 4-[(2-Carboxymethylphenylcarbamoyl)-methoxy]-5,7-dichloronaphthalene-2-carboxylic acid], for which the IC50 turned out to be 503 nM.
The value for `O=C(COc1cc(C(=O)O)cc2cc(Cl)cc(Cl)c12)NCc1ccccc1` [Example 18, 4-(Benzylcarbamoylmethoxy)-5,7-dichloro-naphthalene-2-carboxylic acid] was 988 nM.
With `CN(C(=O)COc1cc(C(=O)O)cc2cc(Cl)cc(Cl)c12)c1ccccc1C(=O)O` [Example 20, 4-{[(2-Carboxyphenyl)-methylcarbamoyl]-methoxy}-5,7-dichloronaphthalene-2-carboxylic acid] the figure was 405 nM; with `NCc1ccc(NC(=O)COc2cc(C(=O)O)cc3cc(Cl)cc(Cl)c23)c(OCC(=O)O)c1` [Example 34, 4-[(4-Aminomethyl-2-carboxymethoxyphenylcarbamoyl)-methoxy]-5,7-dichloronaphthalene-2-carboxylic acid], 11.9 nM; with `O=C(O)COc1ccccc1NC(=O)COc1cc(C(=O)O)cc2cc(Cl)cc(Cl)c12` [Example 42, 4-[(2-Carboxymethoxyphenylcarbamoyl)-methoxy]-5,7-dichloronaphthalene-2-carboxylic acid], 55 nM.
With `O=C(O)c1cc(OCC(=O)N2CCCc3ccccc32)c2c(Cl)cc(Cl)cc2c1` [Example 50, 5,7-Dichloro-4-[2-(3,4-dihydro-2H-quinolin-1-yl)-2-oxo-ethoxy]-naphthalene-2-carboxylic acid] the figure was 1190 nM.
As for `O=C(COc1cc(C(=O)O)cc2cc(Cl)cc(Cl)c12)Nc1ccccc1OCC(=O)N1CCOCC1` [Example 54, 5,7-Dichloro-4-{[2-(2-morpholin-4-yl-2-oxo-ethoxy)-phenylcarbamoyl]-methoxy}-naphthalene-2-carboxylic acid], the concentration for half-maximal inhibition (IC50) was found to be 228 nM.
With `O=C(O)COc1ccccc1CNC(=O)COc1cc(C(=O)O)cc2cc(Cl)cc(Cl)c12` [Example 59, 4-[(2-Carboxymethoxy-benzylcarbamoyl)-methoxy]-5,7-dichloro-naphthalene-2-carboxylic acid] the figure was 83 nM; with `O=C(COc1cc(C(=O)O)cc2cc(Cl)cc(Cl)c12)Nc1ccccc1OCc1nnn[nH]1` [Example 60, 5,7-Dichloro-4-{[2-(1H-tetrazol-5-ylmethoxy)-phenylcarbamoyl]-methoxy}-naphthalene-2-carboxylic acid], 203 nM; with `COCC(Oc1cc(C(=O)O)cc2cc(Cl)cc(Cl)c12)C(=O)Nc1ccccc1OC` (centres unmarked) [Example 74, 5,7-Dichloro-4-[2-methoxy-1-(2-methoxy-phenylcarbamoyl)-ethoxy]-naphthalene-2-carboxylic acid], 1010 nM.
With `O=C(O)c1cc(OCC(=O)N2CCOc3c(CO)cccc32)c2c(Cl)cc(Cl)cc2c1` [Example 78, 5,7-Dichloro-4-[2-(8-hydroxymethyl-2,3-dihydro-benzo[1,4]oxazin-4-yl)-2-oxo-ethoxy]-naphthalene-2-carboxylic acid] the figure was 988 nM.
